Columns and labels:
corn [1] = experiment: Test A pre-/postemergence herbicide test; format: in vivo, Zea mays; conditions: Postemergence; for Plant response rating, Corn: 125 g ai/ha, 0 to 100 scale, 0 is no effect, 100 is complete control; for Corn plant response rating (0 to 100 scale, 0 is no effect, 100 is complete control): 500 g ai/ha
Procedure, shortened: (§1)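 Directed soil spray to seeded pots (preemergence) or spray onto one- to two-leaf seedlings 2–10 cm tall (postemergence); loam/sand substrate throughout. Evaluated visually after about 10 days against untreated plants, 0 = no effect, 100 = complete control.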

oilseed rape = experiment: Test C pre-/postemergence herbicide test; format: in vivo, Brassica napus
Procedure, shortened: (§2)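 Two application timings ran in parallel with identically formulated test chemicals (non-phytotoxic solvent, surfactant included): spray on seeded loam–sand soil, and spray on emerged plants 2 to 18 cm high. Evaluation at 13 to 15 days compared each species with controls, rated from 0 up to 100.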

foxtail, giant = experiment: Test C pre-/postemergence herbicide test; format: in vivo, Setaria faberii
Procedure, shortened: as §2

johnsongrass = experiment: Test C pre-/postemergence herbicide test; format: in vivo, Sorghum halepense
Procedure, shortened: as §2

ragweed = experiment: Test C pre-/postemergence herbicide test; format: in vivo, Ambrosia elatior
Procedure, shortened: as §2

blackgrass = experiment: Test C pre-/postemergence herbicide test; format: in vivo, Alopecurus myosuroides; conditions: for Blackgrass plant response rating: scale 0 to 100, 0 is no effect and 100 is complete control
Procedure, shortened: as §2

corn [2] = experiment: Test C pre-/postemergence herbicide test; format: in vivo, Zea mays
Procedure, shortened: as §2

sedge, umbrella = experiment: Test B flooded paddy test; format: in vivo, Cyperus difformis; conditions: 500 g ai/ha, Flood; scale of 0 to 100 where 0 is no effect and 100 is complete control
Procedure, shortened: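 Scored visually 0–100 (0 no effect, 100 complete control) versus controls after 13 to 15 greenhouse days. Treatment: compound added to paddy water kept 3 cm above soil, on 2-leaf-stage plants.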

wheat = experiment: Test A pre-/postemergence herbicide test; format: in vivo, Triticum aestivum; conditions: Postemergence; for Plant response rating, Wheat: 125 g ai/ha, 0 to 100 scale, 0 is no effect, 100 is complete control; for Wheat plant response rating (0 to 100 scale, 0 is no effect, 100 is complete control): 500 g ai/ha
Procedure, shortened: as §1

galium = experiment: Test C pre-/postemergence herbicide test; format: in vivo, Galium aparine
Procedure, shortened: as §2

giant foxtail = experiment: Test A pre-/postemergence herbicide test; format: in vivo, Setaria faberii; conditions: for Plant response rating, Foxtail, Giant: 0 to 100 scale
Procedure, shortened: as §1

[3] = Preemergence, 31 g ai/ha, scale 0 to 100, 0 is no effect and 100 is complete control
[4] = Preemergence, 62 g ai/ha, scale 0 to 100 (0 no effect, 100 complete control)
[5] = Preemergence, 125 g ai/ha, scale 0 to 100 (0 no effect, 100 complete control)
[6] = Preemergence, 62 g ai/ha, scale 0 to 100
[7] = 125 g ai/ha, visual rating, 0 no effect, 100 complete control, approximately 10 days, preemergence
[8] = Postemergence, 125 g ai/ha, 0 is no effect, 100 is complete control
[9] = preemergence, 500 g ai/ha, 0 is no effect and 100 is complete control
[10] = Postemergence, 31 g ai/ha, scale 0 to 100 (0 no effect, 100 complete control)
[11] = Postemergence, 62 g ai/ha, scale 0 (no effect) to 100 (complete control)
[12] = Postemergence, 125 g ai/ha, scale 0 to 100 (0 no effect, 100 complete control)
[13] = Postemergence, 250 g ai/ha, scale 0 to 100 (0 no effect, 100 complete control)

Structure (SMILES): O=C1NCC(c2ccc(Cl)cc2)C1C(=O)Nc1cccc(F)c1F (stereo not shown) [Compound 218]
- Plant response rating, Corn (corn [1]): 20
- Corn plant response rating (0 to 100 scale, 0 is no effect, 100 is complete control) (corn [1]): 30
- Oilseed Rape plant response rating (oilseed rape; [3]): 0
- Oilseed Rape plant response rating (oilseed rape; [4]): 60
- Plant response rating, Oilseed Rape (oilseed rape; [5]): 20
- Plant response rating (scale of 0 to 100), Oilseed Rape (oilseed rape; Preemergence, 250 g ai/ha): 70
- Foxtail, Giant plant response rating (foxtail, giant; [3]): 85
- Foxtail, Giant plant response rating (foxtail, giant; [4]): 90
- Plant response rating, Foxtail, Giant (foxtail, giant; [5]): 90
- Plant response rating (scale of 0 to 100), Foxtail, Giant (foxtail, giant; Preemergence, 250 g ai/ha): 95
- Johnsongrass plant response rating (johnsongrass; [3]): 0
- Johnsongrass plant response rating (johnsongrass; [4]): 10
- Plant response rating, Johnsongrass (johnsongrass; [5]): 15
- Plant response rating (scale of 0 to 100), Johnsongrass (johnsongrass; Preemergence, 250 g ai/ha): 40
- Ragweed plant response rating (ragweed; [3]): 40
- Ragweed plant response rating (ragweed; [4]): 35
- Plant response rating, Ragweed (ragweed; [5]): 50
- Plant response rating (scale of 0 to 100), Ragweed (ragweed; Preemergence, 250 g ai/ha): 85
- Blackgrass plant response rating (blackgrass; Preemergence, 31 g ai/ha): 0
- Plant response rating, Blackgrass (blackgrass; [6]): 10
- Plant response rating, Blackgrass (blackgrass; [5]): 50
- Plant response rating (scale of 0 to 100), Blackgrass (blackgrass; Preemergence, 250 g ai/ha): 80
- Corn plant response rating (corn [2]; [3]): 0
- Corn plant response rating (corn [2]; [4]): 0
- Plant response rating, Corn (corn [2]; [5]): 0
- Plant response rating (scale of 0 to 100), Corn (corn [2]; Preemergence, 250 g ai/ha): 0
- Plant response rating, Sedge, Umbrella (sedge, umbrella): 0
- Plant response rating, Wheat (wheat): 20
- Wheat plant response rating (0 to 100 scale, 0 is no effect, 100 is complete control) (wheat): 50
- Galium plant response rating (galium; [3]): 0
- Galium plant response rating (galium; [4]): 0
- Plant response rating, Galium (galium; [5]): 85
- Plant response rating (scale of 0 to 100), Galium (galium; Preemergence, 250 g ai/ha): 90
- Plant response rating, Foxtail, Giant (giant foxtail; [7]): 90
- Plant response rating, Foxtail, Giant (giant foxtail; [8]): 60
- Foxtail, Giant plant response rating (0 to 100 scale, 0 is no effect, 100 is complete control) (giant foxtail; Postemergence, 500 g ai/ha): 90
- Plant response rating, Foxtail, Giant (giant foxtail; [9]): 90

Structure (SMILES): O=C1NCC(c2cccc(OC(F)F)c2)C1C(=O)Nc1cccc(F)c1F (stereo not shown) [Compound 224]
- Plant response rating, Corn (corn [1]): 60
- Corn plant response rating (0 to 100 scale, 0 is no effect, 100 is complete control) (corn [1]): 80
- Plant response rating, Oilseed Rape (oilseed rape; [10]): 0
- Plant response rating, Oilseed Rape (oilseed rape; [11]): 15
- Plant response rating, Oilseed Rape (oilseed rape; [12]): 20
- Plant response rating, Oilseed Rape (oilseed rape; [13]): 5
- Oilseed Rape plant response rating (oilseed rape; [3]): 0
- Oilseed Rape plant response rating (oilseed rape; [4]): 5
- Plant response rating, Oilseed Rape (oilseed rape; [5]): 70
- Plant response rating (scale of 0 to 100), Oilseed Rape (oilseed rape; Preemergence, 250 g ai/ha): 85
- Plant response rating, Foxtail, Giant (foxtail, giant; [10]): 0
- Plant response rating, Foxtail, Giant (foxtail, giant; [11]): 0
- Plant response rating, Foxtail, Giant (foxtail, giant; [12]): 60
- Plant response rating, Foxtail, Giant (foxtail, giant; [13]): 35
- Foxtail, Giant plant response rating (foxtail, giant; [3]): 80
- Foxtail, Giant plant response rating (foxtail, giant; [4]): 90
- Plant response rating, Foxtail, Giant (foxtail, giant; [5]): 95
- Plant response rating (scale of 0 to 100), Foxtail, Giant (foxtail, giant; Preemergence, 250 g ai/ha): 98
- Plant response rating, Johnsongrass (johnsongrass; [10]): 0
- Plant response rating, Johnsongrass (johnsongrass; [11]): 0
- Plant response rating, Johnsongrass (johnsongrass; [12]): 15
- Plant response rating, Johnsongrass (johnsongrass; [13]): 25
- Johnsongrass plant response rating (johnsongrass; [3]): 0
- Johnsongrass plant response rating (johnsongrass; [4]): 35
- Plant response rating, Johnsongrass (johnsongrass; [5]): 75
- Plant response rating (scale of 0 to 100), Johnsongrass (johnsongrass; Preemergence, 250 g ai/ha): 85
- Plant response rating, Ragweed (ragweed; [10]): 20
- Plant response rating, Ragweed (ragweed; [11]): 65
- Plant response rating, Ragweed (ragweed; [12]): 45
- Plant response rating, Ragweed (ragweed; [13]): 80
- Ragweed plant response rating (ragweed; [3]): 10
- Ragweed plant response rating (ragweed; [4]): 40
- Plant response rating, Ragweed (ragweed; [5]): 100
- Plant response rating (scale of 0 to 100), Ragweed (ragweed; Preemergence, 250 g ai/ha): 100
- Plant response rating, Blackgrass (blackgrass; [10]): 0
- Plant response rating, Blackgrass (blackgrass; [11]): 0
- Plant response rating, Blackgrass (blackgrass; [12]): 0
- Plant response rating, Blackgrass (blackgrass; [13]): 0
- Blackgrass plant response rating (blackgrass; Preemergence, 31 g ai/ha): 0
- Plant response rating, Blackgrass (blackgrass; [6]): 65
- Plant response rating, Blackgrass (blackgrass; [5]): 70
- Plant response rating (scale of 0 to 100), Blackgrass (blackgrass; Preemergence, 250 g ai/ha): 85
- Plant response rating, Corn (corn [2]; [10]): 0
- Plant response rating, Corn (corn [2]; [11]): 0
- Plant response rating, Corn (corn [2]; [12]): 10
- Plant response rating, Corn (corn [2]; [13]): 10
- Corn plant response rating (corn [2]; [3]): 10
- Corn plant response rating (corn [2]; [4]): 0
- Plant response rating, Corn (corn [2]; [5]): 85
- Plant response rating (scale of 0 to 100), Corn (corn [2]; Preemergence, 250 g ai/ha): 85
- Plant response rating, Sedge, Umbrella (sedge, umbrella): 0
- Plant response rating, Wheat (wheat): 50
- Wheat plant response rating (0 to 100 scale, 0 is no effect, 100 is complete control) (wheat): 60
- Plant response rating, Galium (galium; [10]): 5
- Plant response rating, Galium (galium; [11]): 45
- Plant response rating, Galium (galium; [12]): 60
- Plant response rating, Galium (galium; [13]): 85
- Galium plant response rating (galium; [3]): 0
- Galium plant response rating (galium; [4]): 40
- Plant response rating, Galium (galium; [5]): 85
- Plant response rating (scale of 0 to 100), Galium (galium; Preemergence, 250 g ai/ha): 85
- Plant response rating, Foxtail, Giant (giant foxtail; [7]): 90
- Plant response rating, Foxtail, Giant (giant foxtail; [8]): 80
- Foxtail, Giant plant response rating (0 to 100 scale, 0 is no effect, 100 is complete control) (giant foxtail; Postemergence, 500 g ai/ha): 80
- Plant response rating, Foxtail, Giant (giant foxtail; [9]): 90

Structure (SMILES): O=C1NCC(c2ccc(C(F)(F)F)cc2)C1C(=O)Nc1ccccc1F (stereo not shown) [Compound 231]
- Plant response rating, Corn (corn [1]): 30
- Corn plant response rating (0 to 100 scale, 0 is no effect, 100 is complete control) (corn [1]): 40
- Oilseed Rape plant response rating (oilseed rape; [3]): 0
- Oilseed Rape plant response rating (oilseed rape; [4]): 55
- Plant response rating, Oilseed Rape (oilseed rape; [5]): 85
- Plant response rating (scale of 0 to 100), Oilseed Rape (oilseed rape; Preemergence, 250 g ai/ha): 90
- Foxtail, Giant plant response rating (foxtail, giant; [3]): 90
- Foxtail, Giant plant response rating (foxtail, giant; [4]): 90
- Plant response rating, Foxtail, Giant (foxtail, giant; [5]): 98
- Plant response rating (scale of 0 to 100), Foxtail, Giant (foxtail, giant; Preemergence, 250 g ai/ha): 95
- Johnsongrass plant response rating (johnsongrass; [3]): 0
- Johnsongrass plant response rating (johnsongrass; [4]): 10
- Plant response rating, Johnsongrass (johnsongrass; [5]): 45
- Plant response rating (scale of 0 to 100), Johnsongrass (johnsongrass; Preemergence, 250 g ai/ha): 60
- Ragweed plant response rating (ragweed; [3]): 80
- Ragweed plant response rating (ragweed; [4]): 100
- Plant response rating, Ragweed (ragweed; [5]): 80
- Plant response rating (scale of 0 to 100), Ragweed (ragweed; Preemergence, 250 g ai/ha): 85
- Blackgrass plant response rating (blackgrass; Preemergence, 31 g ai/ha): 50
- Plant response rating, Blackgrass (blackgrass; [6]): 85
- Plant response rating, Blackgrass (blackgrass; [5]): 85
- Plant response rating (scale of 0 to 100), Blackgrass (blackgrass; Preemergence, 250 g ai/ha): 90
- Corn plant response rating (corn [2]; [3]): 0
- Corn plant response rating (corn [2]; [4]): 5
- Plant response rating, Corn (corn [2]; [5]): 70
- Plant response rating (scale of 0 to 100), Corn (corn [2]; Preemergence, 250 g ai/ha): 85
- Plant response rating, Sedge, Umbrella (sedge, umbrella): 0
- Plant response rating, Wheat (wheat): 20
- Wheat plant response rating (0 to 100 scale, 0 is no effect, 100 is complete control) (wheat): 30
- Galium plant response rating (galium; [3]): 0
- Galium plant response rating (galium; [4]): 85
- Plant response rating, Galium (galium; [5]): 90
- Plant response rating (scale of 0 to 100), Galium (galium; Preemergence, 250 g ai/ha): 90
- Plant response rating, Foxtail, Giant (giant foxtail; [7]): 90
- Plant response rating, Foxtail, Giant (giant foxtail; [8]): 70
- Foxtail, Giant plant response rating (0 to 100 scale, 0 is no effect, 100 is complete control) (giant foxtail; Postemergence, 500 g ai/ha): 90
- Plant response rating, Foxtail, Giant (giant foxtail; [9]): 90

Reference: US10294202B2, “Pyrrolidinones as herbicides” (FMC Corporation, priority 2013, dated 2019)
